Test results reported in patent US20230346823A1, “UTILIZATION OF VITAMIN B12 IN INHIBITING RENAL DISORDER” (Niigata University, priority 2020, published 2023).

Assays:
megalin [1] = target: megalin (Mus musculus, UniProt A2ARV4); conditions: described in PTL 1; cited from earlier work
transcobalamin 2 (TCN2) [2] = target: T1, transcobalamin 2 (TCN2) (Rattus norvegicus, UniProt Q9R0D6); assay: Competition against binding of TCN2 to contrast medium-immobilized beads, Western blotting; conditions: 25 ng/µL TCN2 + test substance; contrast medium beads (iomeprol, ioversol, iodixanol, iopromide, iohexol) at 10 mM feed; FIG. 6 to FIG. 10
T1 construct: purchased LifeSpan BioSciences, Inc
T1 sequence (Q9R0D6 19-427): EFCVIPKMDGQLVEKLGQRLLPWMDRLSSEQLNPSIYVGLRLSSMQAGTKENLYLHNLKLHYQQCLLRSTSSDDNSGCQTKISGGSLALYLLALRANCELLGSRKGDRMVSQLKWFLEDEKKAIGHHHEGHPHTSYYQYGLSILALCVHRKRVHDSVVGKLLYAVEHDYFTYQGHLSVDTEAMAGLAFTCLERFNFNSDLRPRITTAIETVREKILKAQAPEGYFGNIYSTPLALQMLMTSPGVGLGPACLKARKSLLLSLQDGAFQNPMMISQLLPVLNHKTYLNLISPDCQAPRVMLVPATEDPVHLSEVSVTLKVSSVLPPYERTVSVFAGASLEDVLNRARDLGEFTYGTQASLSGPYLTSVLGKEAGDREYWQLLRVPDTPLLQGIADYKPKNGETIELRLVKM
Text: Iodinated contrast media used were the bulk of iomeprol, the bulk of ioversol, the bulk of iodixanol, the bulk of iopromide, and the bulk of iohexol. Evaluations were made using these solid-phased beads.
For test chemicals for competing with the binding, vitamin B12 (cyanocobalamin, methylcobalamin, or hydroxocobalamin), cilastatin, and iomeprol (iodinated contrast medium) were used. Cilastatin and iomeprol are positive controls of inhibition.
The solution/beads combinations adopted were as mentioned below. • Solution a) + contrast medium-immobilized beads prepared at 0 mM contrast medium feed concentration (control) • Solution a) + contrast medium-immobilized beads prepared at 10 mM contrast medium feed concentration (no competition) • Solution b) + contrast medium-immobilized beads prepared at 10 mM contrast medium feed concentration (competition with vitamin B12, iomeprol, or cilastatin)

transcobalamin 2 (TCN2) [3] = target: T1, transcobalamin 2 (TCN2); assay: Binding of TCN2 to iomeprol-immobilized magnetic beads, Western blotting with anti-TCN2 antibody; conditions: feed concentrations 0, 3 and 10 mM, 25 ng/µL TCN2, 4° C., 4 hours, FIG. 5
Protocol: The bulk of iodinated contrast medium was dissolved, just before use, in a solvent in which glycidylmethacrylate-coated magnetic beads (FG beads®, particle size: 0.2 µm, produced by Tamagawa Seiki Co., Ltd.) were dispersed, to initiate chemical bonding between […] present on the surface of the magnetic beads and hydroxyl groups in the contrast medium, whereby contrast medium-immobilized magnetic beads were prepared.
The iodinated contrast medium used was the bulk of iomeprol. At feed concentrations of 0 mM, 3 mM and 10 mM, the iodinated contrast medium was immobilized by chemical bonding. The preparation of the iomeprol-immobilized beads was conducted by Tamagawa Seiki Co., Ltd. […]
The TCN2-containing samples were subjected to SDS-polyacrylamide electrophoresis under reducing conditions using 4-15% gradient gels (produced by Bio-Rad Laboratories), and the developed samples were transferred onto polyvinylidene fluoride (PVDF) membranes. […] Then, bands were detected using chemiluminescent substrate for western blotting (SuperSignal™ West Femto Maximum Sensitivity Substrate; Thermo Scientific™).

[4] = test system: renal proximal tubular epithelial cells; assay: Internalization of iodinated contrast medium into kidney cortex, iodine/nitrogen ratio by EPMA; assay type: in vivo, C57BL/6J mice; conditions: 100 µL iomeprol + 100 µL of 1 mg/mL cyanocobalamin, tail vein; kidneys 3 hours later; vs iomeprol + normal saline control; t-test; FIG. 1
Protocol: The prepared sections were analyzed by EPMA (EPMA1610; Shimadzu Ltd, Kyoto, Japan) by following the procedure described below to examine whether there is a difference in the internalization of a contrast medium between the contrast medium + vitamin B12-treated group and the contrast medium + normal saline-treated group.
EPMA is an electron microprobe (EMP) instrument that analyzes the constituent elements of a substance of interest by irradiating electron beams onto the substance and measuring the wavelengths and intensities of characteristic X-rays unique to the different elements, which are generated by the electron beams. The iodine content in sections can be determined by EMP analysis (Norby, et al., Scanning Microsc, 1990, vol.4, p.651-666). […] The behaviors of iodinated contrast media per se can be verified by analyzing iodine content distribution.
The “thin-film quantification” technique can be applied for analysis of biological samples such as kidney tissue sections. […]
Therefore, by calculating a ratio of characteristic X-ray intensity between iodine (I) and nitrogen (N) (I/N) in a specified area of biological samples, iodine (I) in different samples can be relatively quantified and compared.
Based on this principle, the sections obtained by the above experiment were analyzed by EPMA, and iodine in a specified area was relatively quantified and compared among the samples. […]

C57BL/6J mice = assay: Contrast-induced renal injury model (left nephrectomy, ischemia-reperfusion, then iomeprol); conditions: 200 µL iomeprol + 100 µL of 1 mg/mL cyanocobalamin, vs iomeprol + normal saline
Protocol: Left kidneys were extracted from the C57BL/6J mice, and 14 days later, right kidney pedicles were ligated for 30 minutes. Thereafter, reperfusion was carried out. After 24 hours from the start of reperfusion, the C57BL/6J mice were divided into the following groups and administered with the following agents from the tail vein. • a) Contrast medium + vitamin B12-treated group: 200 µL of iomeprol + 100 µL of 1 mg/mL of cyanocobalamin solution • b) Contrast medium + normal saline-treated group (control): 200 µL of iomeprol + 100 µL of normal saline
For each of the groups, 24 hours before anatomizing, urine samples were collected using a metabolic cage, the mice were anatomized after 48 hours from the medication, then urinary kidney injury molecule-1 (KIM-1) was measured. Urinary KIM-1 measurements were conducted by Oriental Yeast Co., Ltd.
Further, right kidneys were extracted and histologically evaluated by immunostaining with KIM-1. To be specific, 3 mm-thick sections containing a kidney pedicle portion were prepared from the right kidneys, fixed with 4% paraformaldehyde phosphate buffer, sliced at a thickness of 4 µm using a microtome (REM-710; Yamato Kohki Industrial Co., Ltd.), and the obtained thin slices were immunostained with the renal injury marker KIM-1. The immunostaining was performed using VECTASTAIN Elite ABC Kit (Vector Laboratories, Inc.). […]

megalin [5] = target: T2, megalin (Rattus norvegicus, UniProt P98158); assay: Quartz crystal microbalance (QCM) binding of transcobalamin 2 to immobilized megalin; set-up: species or system Sprague-Dawley (SD) rat; conditions: 1.5 µg recombinant rat transcobalamin 2 injected on megalin-immobilized quartz crystals; BSA control decreased only 20 to 30 Hz; FIG. 4
T2 construct: megalin purified from Sprague-Dawley (SD) rat kidneys; from tissue; host or cells: Sprague-Dawley rat kidneys (megalin purified by the method of Orlando et al.); TCN2 purchased from LifeSpan BioSciences
Protocol: According to the method of Orlando, et al., megalin purified from Sprague-Dawley (SD) rat kidneys was immobilized on quartz crystals. To be specific, with the use of an immobilization kit for AFFINIX® (Initium Inc.) according to the recommended protocol for the kit, a megalin solution was prepared in Buffer A as provided with the kit to a concentration of 62.5 µg/mL, and placed and immobilized on the quartz crystals mounted in a holder.
After the megalin-immobilized quartz crystals were mounted in the measurement instrument AFFINIX® Q8 (Initium Inc.) and the frequency was confirmed to be stable, recombinant rat transcobalamin 2 proteins (TCN2 LifeSpan Bio Sciences, Inc.) (1.5 µg) were injected (in total injection volume) to measure frequency over time. More specifically, after the megalin-immobilized quartz crystals were immersed in 200 µL of buffer and the frequency was confirmed to be stable, transcobalamin 2 was injected and frequency was measured. The same measurement was done on quartz crystals, as a control, on which the same amount of bovine serum albumin (BSA) was immobilized instead of megalin, and the specific binding ability of transcobalamin 2 to megalin was analyzed.

Sequence of megalin (Mus musculus, UniProt A2ARV4) (A2ARV4 26-4660): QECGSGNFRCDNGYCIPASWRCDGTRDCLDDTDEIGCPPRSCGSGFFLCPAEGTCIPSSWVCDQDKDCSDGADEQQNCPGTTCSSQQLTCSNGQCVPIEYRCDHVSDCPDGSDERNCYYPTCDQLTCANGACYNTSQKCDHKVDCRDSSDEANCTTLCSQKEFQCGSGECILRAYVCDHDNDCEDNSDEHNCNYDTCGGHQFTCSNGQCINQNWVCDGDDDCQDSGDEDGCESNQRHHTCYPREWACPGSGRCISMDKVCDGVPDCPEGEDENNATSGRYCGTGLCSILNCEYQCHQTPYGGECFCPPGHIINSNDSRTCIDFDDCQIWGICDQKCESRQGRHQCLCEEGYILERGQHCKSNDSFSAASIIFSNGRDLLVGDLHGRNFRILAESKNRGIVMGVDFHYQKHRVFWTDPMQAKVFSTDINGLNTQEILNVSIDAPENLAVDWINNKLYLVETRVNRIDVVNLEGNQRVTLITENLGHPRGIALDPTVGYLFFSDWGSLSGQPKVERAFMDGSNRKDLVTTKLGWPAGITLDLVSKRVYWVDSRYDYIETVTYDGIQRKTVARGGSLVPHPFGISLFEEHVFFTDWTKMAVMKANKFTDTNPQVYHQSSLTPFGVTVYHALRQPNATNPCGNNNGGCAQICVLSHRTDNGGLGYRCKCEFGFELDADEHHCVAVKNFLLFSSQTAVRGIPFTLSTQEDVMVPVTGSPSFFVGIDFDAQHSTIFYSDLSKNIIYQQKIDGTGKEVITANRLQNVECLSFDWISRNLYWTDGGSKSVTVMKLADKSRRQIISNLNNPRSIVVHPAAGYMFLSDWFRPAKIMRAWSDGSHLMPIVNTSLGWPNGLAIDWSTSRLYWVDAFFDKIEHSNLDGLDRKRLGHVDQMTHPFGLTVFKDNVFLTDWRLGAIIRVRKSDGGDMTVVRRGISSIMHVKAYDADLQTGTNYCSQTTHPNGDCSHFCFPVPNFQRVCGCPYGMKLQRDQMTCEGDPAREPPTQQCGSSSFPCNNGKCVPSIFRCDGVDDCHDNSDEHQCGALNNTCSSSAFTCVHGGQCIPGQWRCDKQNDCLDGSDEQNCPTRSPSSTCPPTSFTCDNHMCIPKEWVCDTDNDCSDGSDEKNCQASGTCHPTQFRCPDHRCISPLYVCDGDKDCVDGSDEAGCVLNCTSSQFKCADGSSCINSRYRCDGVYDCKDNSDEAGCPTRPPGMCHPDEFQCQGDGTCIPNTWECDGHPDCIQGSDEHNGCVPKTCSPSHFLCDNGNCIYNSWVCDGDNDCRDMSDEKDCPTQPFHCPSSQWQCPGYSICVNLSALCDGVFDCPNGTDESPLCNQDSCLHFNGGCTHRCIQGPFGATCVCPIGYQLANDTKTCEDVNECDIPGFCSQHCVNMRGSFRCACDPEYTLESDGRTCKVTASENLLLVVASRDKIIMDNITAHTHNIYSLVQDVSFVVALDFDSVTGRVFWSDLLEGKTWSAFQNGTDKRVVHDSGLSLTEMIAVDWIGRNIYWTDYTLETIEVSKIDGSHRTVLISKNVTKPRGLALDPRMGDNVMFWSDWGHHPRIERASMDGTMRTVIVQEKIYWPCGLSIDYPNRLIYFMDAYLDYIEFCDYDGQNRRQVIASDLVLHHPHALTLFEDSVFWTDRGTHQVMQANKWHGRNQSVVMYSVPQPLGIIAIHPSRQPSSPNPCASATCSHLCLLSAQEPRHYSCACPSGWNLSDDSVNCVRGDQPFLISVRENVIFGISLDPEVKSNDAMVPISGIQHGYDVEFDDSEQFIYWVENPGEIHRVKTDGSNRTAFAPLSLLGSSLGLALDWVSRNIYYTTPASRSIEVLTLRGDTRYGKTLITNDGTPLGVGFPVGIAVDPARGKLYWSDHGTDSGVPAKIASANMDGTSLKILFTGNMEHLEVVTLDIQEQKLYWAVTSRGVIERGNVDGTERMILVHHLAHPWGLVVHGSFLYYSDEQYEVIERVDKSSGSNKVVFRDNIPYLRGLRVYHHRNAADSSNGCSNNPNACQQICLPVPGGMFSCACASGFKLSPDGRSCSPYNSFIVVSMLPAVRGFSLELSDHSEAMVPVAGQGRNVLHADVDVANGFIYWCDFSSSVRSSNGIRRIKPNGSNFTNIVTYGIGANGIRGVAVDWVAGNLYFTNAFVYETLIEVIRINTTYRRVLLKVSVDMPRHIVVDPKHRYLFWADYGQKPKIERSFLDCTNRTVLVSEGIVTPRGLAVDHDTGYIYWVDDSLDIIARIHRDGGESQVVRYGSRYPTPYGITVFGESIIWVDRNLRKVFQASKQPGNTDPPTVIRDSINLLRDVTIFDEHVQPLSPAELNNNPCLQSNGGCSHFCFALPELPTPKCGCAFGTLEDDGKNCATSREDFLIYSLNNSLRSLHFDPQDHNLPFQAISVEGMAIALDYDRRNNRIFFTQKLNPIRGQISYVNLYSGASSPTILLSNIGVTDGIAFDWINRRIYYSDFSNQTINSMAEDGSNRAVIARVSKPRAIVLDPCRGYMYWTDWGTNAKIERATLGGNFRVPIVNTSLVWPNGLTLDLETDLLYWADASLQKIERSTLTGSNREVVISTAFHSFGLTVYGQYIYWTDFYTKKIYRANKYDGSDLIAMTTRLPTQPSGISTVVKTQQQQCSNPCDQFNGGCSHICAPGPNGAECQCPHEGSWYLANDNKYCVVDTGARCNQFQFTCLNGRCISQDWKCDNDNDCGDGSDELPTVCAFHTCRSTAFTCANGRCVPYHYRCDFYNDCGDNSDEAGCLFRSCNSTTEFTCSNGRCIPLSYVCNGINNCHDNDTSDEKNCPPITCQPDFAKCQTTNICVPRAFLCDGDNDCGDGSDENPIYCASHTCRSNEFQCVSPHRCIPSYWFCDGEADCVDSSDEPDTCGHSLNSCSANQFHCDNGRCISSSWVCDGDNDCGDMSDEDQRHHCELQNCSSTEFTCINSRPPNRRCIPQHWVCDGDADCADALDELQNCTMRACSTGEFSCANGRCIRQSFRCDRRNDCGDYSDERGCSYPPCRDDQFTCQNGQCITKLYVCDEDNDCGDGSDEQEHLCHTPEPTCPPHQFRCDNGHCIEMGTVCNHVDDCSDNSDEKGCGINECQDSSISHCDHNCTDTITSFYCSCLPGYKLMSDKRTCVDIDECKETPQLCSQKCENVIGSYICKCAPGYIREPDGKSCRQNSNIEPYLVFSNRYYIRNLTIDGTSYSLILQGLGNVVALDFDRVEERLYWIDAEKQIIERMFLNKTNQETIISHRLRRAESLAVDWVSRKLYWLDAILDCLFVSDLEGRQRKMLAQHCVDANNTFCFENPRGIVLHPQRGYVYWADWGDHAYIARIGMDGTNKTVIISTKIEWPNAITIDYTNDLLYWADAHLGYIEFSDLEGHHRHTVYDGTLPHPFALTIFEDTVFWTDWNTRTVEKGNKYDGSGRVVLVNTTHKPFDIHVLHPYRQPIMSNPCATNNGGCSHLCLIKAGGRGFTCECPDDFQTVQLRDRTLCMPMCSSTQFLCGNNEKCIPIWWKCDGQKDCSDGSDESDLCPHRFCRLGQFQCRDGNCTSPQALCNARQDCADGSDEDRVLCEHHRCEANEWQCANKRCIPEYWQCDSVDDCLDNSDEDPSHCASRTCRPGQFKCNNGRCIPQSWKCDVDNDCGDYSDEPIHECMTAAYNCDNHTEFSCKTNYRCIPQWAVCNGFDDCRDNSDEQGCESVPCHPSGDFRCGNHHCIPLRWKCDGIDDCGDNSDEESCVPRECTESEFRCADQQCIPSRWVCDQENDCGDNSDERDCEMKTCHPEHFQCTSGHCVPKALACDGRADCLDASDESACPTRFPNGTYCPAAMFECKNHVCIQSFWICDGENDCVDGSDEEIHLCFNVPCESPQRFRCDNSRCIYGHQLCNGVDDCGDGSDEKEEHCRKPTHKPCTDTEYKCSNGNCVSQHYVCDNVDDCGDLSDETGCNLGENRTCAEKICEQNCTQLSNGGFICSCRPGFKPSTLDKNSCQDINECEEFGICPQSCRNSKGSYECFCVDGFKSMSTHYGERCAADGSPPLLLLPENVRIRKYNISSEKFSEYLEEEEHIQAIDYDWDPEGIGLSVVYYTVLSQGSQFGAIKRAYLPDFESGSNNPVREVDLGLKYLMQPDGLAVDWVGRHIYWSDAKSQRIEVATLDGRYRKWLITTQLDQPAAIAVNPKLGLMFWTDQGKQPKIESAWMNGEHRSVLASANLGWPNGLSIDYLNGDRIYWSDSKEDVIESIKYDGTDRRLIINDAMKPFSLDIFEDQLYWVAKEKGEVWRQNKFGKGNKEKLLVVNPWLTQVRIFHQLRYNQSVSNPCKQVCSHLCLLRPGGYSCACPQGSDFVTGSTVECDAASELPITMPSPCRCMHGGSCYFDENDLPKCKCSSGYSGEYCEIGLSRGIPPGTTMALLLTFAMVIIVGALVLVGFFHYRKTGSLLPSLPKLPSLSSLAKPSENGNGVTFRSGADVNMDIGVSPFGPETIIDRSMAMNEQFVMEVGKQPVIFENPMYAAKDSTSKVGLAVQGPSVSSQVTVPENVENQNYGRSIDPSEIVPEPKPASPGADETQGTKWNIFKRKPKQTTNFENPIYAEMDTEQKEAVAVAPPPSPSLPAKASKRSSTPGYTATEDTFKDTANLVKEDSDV

CC1(C)C[C@@H]1C(=O)N/C(=C\CCCCSC[C@H](N)C(=O)O)C(=O)O [cilastatin, (Z)-7-[[(R)-2-Amino-2-carboxyethyl]thio]-2-[[[(S)-2,2-dimethylcyclopropyl]carbonyl]amino]-2-heptenoic acid]
megalin-dependent internalization of iodinated contrast media into renal proximal tubular epithelial cells (megalin [1]): inhibits | renal injuries (megalin [1]): inhibits renal injuries | TCN2 bands by competition with test substance (transcobalamin 2 (TCN2) [2]): concentration-dependent decrease in TCN2 bands

C/C1=C2/[N-][C@H]([C@H](CC(N)=O)[C@@]2(C)CCC(=O)NC[C@@H](C)OP(=O)([O-])O[C@H]2[C@@H](O)[C@@H](n3cnc4cc(C)c(C)cc43)O[C@@H]2CO)[C@]2(C)N=C(/C(C)=C3N=C(/C=C4N=C1[C@@H](CCC(N)=O)C\4(C)C)[C@@H](CCC(N)=O)[C@]\3(C)CC(N)=O)[C@@H](CCC(N)=O)[C@]2(C)CC(N)=O.[Co+3].[OH-] [hydroxocobalamin]
TCN2 bands by competition with test substance (transcobalamin 2 (TCN2) [2]): concentration-dependent decrease in TCN2 bands

CN(C(=O)CO)c1c(I)c(C(=O)NCC(O)CO)c(I)c(C(=O)NCC(O)CO)c1I (stereo not drawn) [iomeprol]
intensity of TCN2 band from heat-eluted samples (transcobalamin 2 (TCN2) [3]): intensity of the band corresponding to TCN2 from heat-eluted samples was increased | TCN2 bands by competition with test substance (transcobalamin 2 (TCN2) [2]): concentration-dependent decrease in TCN2 bands

C/C1=C2/[N-][C@H]([C@H](CC(N)=O)[C@@]2(C)CCC(=O)NC[C@H](C)OP(=O)([O-])O[C@H]2[C@@H](O)[C@@H](n3cnc4cc(C)c(C)cc43)O[C@@H]2CO)[C@]2(C)N=C(/C(C)=C3N=C(/C=C4N=C1[C@@H](CCC(N)=O)C\4(C)C)[C@@H](CCC(N)=O)[C@]\3(C)CC(N)=O)[C@@H](CCC(N)=O)[C@]2(C)CC(N)=O.[CH3-].[Co+3] [methylcobalamin]
TCN2 bands by competition with test substance (transcobalamin 2 (TCN2) [2]): concentration-dependent decrease in TCN2 bands

cyanocobalamin
I/N X-ray ratio (iodine/nitrogen) in kidney cortex areas [4]: significantly (t-test) lower | expression of KIM-1 in outer cortex (immunostaining) (C57BL/6J mice; tail vein, 48 hours after medication, FIG. 2): expression of KIM-1 was decreased | PAS staining, vacuoles degeneration (injury finding) in kidney cortex (C57BL/6J mice; FIG. 3): did not have such an injury finding | TCN2 bands by competition with test substance (transcobalamin 2 (TCN2) [2]): concentration-dependent decrease in TCN2 bands

B1: transcobalamin 2: Recombinant rat transcobalamin 2 protein, a transport protein for vitamin B12 (about 45 kDa) (protein, UniProt Q9R0D6 19-427, looked up)
Transcobalamin-2: EFCVIPKMDGQLVEKLGQRLLPWMDRLSSEQLNPSIYVGLRLSSMQAGTKENLYLHNLKLHYQQCLLRSTSSDDNSGCQTKISGGSLALYLLALRANCELLGSRKGDRMVSQLKWFLEDEKKAIGHHHEGHPHTSYYQYGLSILALCVHRKRVHDSVVGKLLYAVEHDYFTYQGHLSVDTEAMAGLAFTCLERFNFNSDLRPRITTAIETVREKILKAQAPEGYFGNIYSTPLALQMLMTSPGVGLGPACLKARKSLLLSLQDGAFQNPMMISQLLPVLNHKTYLNLISPDCQAPRVMLVPATEDPVHLSEVSVTLKVSSVLPPYERTVSVFAGASLEDVLNRARDLGEFTYGTQASLSGPYLTSVLGKEAGDREYWQLLRVPDTPLLQGIADYKPKNGETIELRLVKM
decrease of QCM frequency (megalin [5]): about 200 Hz
